According to patent publication US20250101058A1, “CRYSTAL FORM OF HIGH-STABILITY NOR-URSODEOXYCHOLIC BERBERINE SALT, AND PREPARATION METHOD THEREFOR” (CHENGDU BIOBEL BIOTECHNOLOGY CO., LTD, priority 2022, published 2025):
Like-named read-outs stand apart in the source and are kept apart here.

Tests used:
[1] = Competition experiment for crystalline forms A, C, and D in suspension; assay type: physicochemical; settings: aw 0.2-1; stirring at room temperature, 8 days; XRPD
Protocol: The starting material obtained in step 1 of Example 1 was added to the corresponding volume of solvent, and then allowed to suspend under stirring at room temperature for 2 h. The suspension was filtered with a 0.4 μm PTFE filter membrane to obtain a saturated solution. About 3 mg samples of crystalline forms A, C, and D were separately weighed and transferred to HPLC vials, to which was added 1 mL of saturated solution, and then the mixture was allowed to suspend under stirring at room temperature. After 8 days, the suspension was filtered to obtain the solid, and the change in crystalline form was identified by XRPD analysis.

[2] = assay type: physicochemical; settings: for Purity (area): HPLC
Protocol: The samples of crystalline forms A and D were stored in an opened bottle for one week under 25° C./60% RH and 40° C./75% RH conditions, respectively. The physical and chemical stability of the samples was detected by XRPD and HPLC.

[3] = Grinding stability testing (XRPD); assay type: physicochemical; settings: 50 mg manually ground
Protocol: 50 mg samples of crystalline form A and crystalline form D were manually ground, and then detected by XRPD.

[4] = Pressure stability testing (tableting at 10 kN); assay type: physicochemical; settings: 10 kN pressure; for Adhesion percentage: (ML-MT)/ML×100%; for Tensile strength T: T=2H/πDt; for Crystalline form after pressing: XRPD of crushed sample; for Tablet diameter D / Tablet thickness t: after 24 h elastic recovery; for Adhesion amount: powder adhesive to the punch; for Hardness H: radial crushing strength
Protocol: 100 mg samples of crystalline forms A and D were respectively added to […] of round flat punch, and then pressed into circular tablets using 10 kN pressure. The loading mass (ML) and tablet mass (MT) were recorded, and then the formula ma=(ML-MT)/ML×100% was used to calculate the mass percentage (ma) of the powder adhesive to the punch; the pressed tablets were kept in a dryer for 24 h for elastic recovery. After elastic recovery, the diameter (D) and thickness (t) of the tablet were measured using a vernier caliper. The radial crushing strength (hardness, H) was measured using a tablet hardness tester, and the XRPD pattern of the crushed sample was also tested.

[5] = Stability of crystalline form G on heating and on exposure after opening the cover; assay type: physicochemical; settings: cover opened and kept for 1 h
[6] = previous studies, CN2021110940333; cited from earlier work
[7] = Hygroscopicity test (dynamic vapor sorption, DVS); assay type: physicochemical
Protocol: The mass change percentage of crystalline form A was tested using dynamic vapor sorption (DVS) under constant temperature conditions of 25° C. and various humidity conditions, with a humidity change of 30% RH to 95% RH to 0% RH to 95% RH.
Crystalline form A had good physical stability.

[8] = One week, 25° C./60% RH and 40° C./75% RH

CC(CC(=O)[O-])C1CCC2C3C(O)CC4CC(O)CCC4(C)C3CCC12C.COc1ccc2cc3[n+](cc2c1OC)CCc1cc2c(cc1-3)OCO2 (stereo not drawn) [Crystalline form C, nor-ursodeoxycholic berberine salt]
Solid form obtained after competition in suspension [1]: transition to form A

CC(CC(=O)[O-])C1CCC2C3C(O)CC4CC(O)CCC4(C)C3CCC12C.COc1ccc2cc3[n+](cc2c1OC)CCc1cc2c(cc1-3)OCO2 (stereo not drawn) [Crystalline form D, nor-ursodeoxycholic berberine salt]
Change of crystal structure / crystalline form (physical stability) [2]: not obviously changed
Purity (area) ([2]; Initial): 98.61%
Purity decrease ([2]; One week, 25° C./60% RH): 0.37%
Relative purity percentage (vs initial purity) ([2]; One week, 25° C./60% RH): 99.63%
Crystallinity after storage [2, 8]: the crystallinity decreased
Sample appearance after storage [2, 8]: turned dark brown
Purity (area) ([2]; One week, 25° C./60% RH): 98.24%
Purity decrease ([2]; One week, 40° C./75% RH): 0.62%
Relative purity percentage (vs initial purity) ([2]; One week, 40° C./75% RH): 99.37%
Purity (area) ([2]; One week, 40° C./75% RH): 97.99%
Crystalline form after grinding [3]: transformed into amorphous
Tablet mass [4]: 96.9 mg
Adhesion percentage [4]: 3.3%
Tensile strength T [4]: 1.69 MPa
Crystalline form after pressing [4]: remained unchanged
Tablet diameter D [4]: 6.02 mm
Tablet thickness t [4]: 2.90 mm
Adhesion amount [4]: 3.3 mg
Hardness H [4]: 46.31 N

CC(CC(=O)[O-])C1CCC2C3C(O)CC4CC(O)CCC4(C)C3CCC12C.COc1ccc2cc3[n+](cc2c1OC)CCc1cc2c(cc1-3)OCO2 (stereo not drawn) [Crystalline form G, nor-ursodeoxycholic berberine salt]
Crystalline form after opening the cover [5]: turned back into form A

nor-ursodeoxycholic berberine salt
Alanine aminotransferase (ALT) [6]: significantly reduce
Alkaline phosphatase (ALP) [6]: significantly reduce
Glutamic oxaloacetic transaminase (AST) [6]: significantly reduce
Liver pathological damage (such as hepatic steatosis) [6]: significant improvement effect
Therapeutic effect on fatty liver, liver fibrosis, and cirrhosis versus HTD1801 [6]: significantly better than that of HTD1801
Therapeutic effect on fatty liver, liver fibrosis, and cirrhosis versus individual norUDCA and berberine hydrochloride [6]: superior to the sum of the effects produced by individual norUDCA and berberine hydrochloride

nor-ursodeoxycholic berberine salt [Crystalline form A]
Water adsorption rate ([7]; DVS, 25° C., 80% RH): 8.7%
Water absorption behaviour ([7]; DVS, 25° C., after the relative humidity reached 10%): slowly absorbed water
Water absorption behaviour ([7]; DVS, 25° C., relative humidity range of 0% to 10%): rapidly absorbed water
Crystalline form before and after DVS testing ([7]; XRPD after DVS): did not change
Change of crystal structure / crystalline form (physical stability) [2]: the crystal structure was not changed
Purity change (chemical stability) [2]: not changed significantly
Purity (area) ([2]; Initial): 99.26%
Relative purity percentage (vs initial purity) ([2]; One week, 25° C./60% RH): 100.0%
Purity (area) ([2]; One week, 25° C./60% RH): 99.24%
Relative purity percentage (vs initial purity) ([2]; One week, 40° C./75% RH): 100.0%
Purity (area) ([2]; One week, 40° C./75% RH): 99.23%
Crystalline form after grinding [3]: remained unchanged
Crystallinity after grinding [3]: the crystallinity decreased
Tablet mass [4]: 103.2 mg
Adhesion percentage [4]: 1.6%
Tensile strength T [4]: 2.38 MPa
Crystalline form after pressing [4]: remained unchanged
Tablet diameter D [4]: 6.02 mm
Tablet thickness t [4]: 2.90 mm
Adhesion amount [4]: 1.7 mg
Hardness H [4]: 65.37 N
